In general, melting point refers to the temperature, or range, at which the solid turns liquid.

On to `N#Cc1cc2c(cc1Br)nc1n2CCC1`, for which the melting point was 224 °C.
The same measure for `CS(=O)(=O)Nc1ccccc1C(=O)C1CCCCC1`: 119 to 120 °C.
The figure for `COc1cc2c(c3c1OC(C)(C)C3)C(c1cccc(N3CCNS3(=O)=O)c1)=NC(C)(C)C2` is 145 to 147 °C.
The figure for `CC(C)CC(NC(=O)C(C)CS)C(=O)O` (configuration not stated) is 66 to 71 °C; for `CCCOCCn1c(CN2CCN(C)CC2)nc2ccccc21` it is 73 to 75.5 °C.
Molecule `CCc1cc(CC)c(-c2c(O)c(C)nn(C)c2=O)c(CC)c1I` had a melting point of 217 to 219 °C.
The figure for `CCCN(CCCCNC(=O)NC1Cc2ccccc2C1)C1CCc2ncsc2C1` (configuration not stated) is 93 °C; for `CC(=O)Nc1[nH]c(-c2ccc(O)cc2)nc1C` it is 277 to 279 °C.
For `COc1ccccc1-c1ccc(C(=O)N2Cc3ccc(C(=O)NCCc4ccc(O)cc4)n3Cc3ccccc32)cc1C`, the melting point was 138 to 147 °C.
The same measure for `Cc1ccnc(Nc2nc(-c3c[nH]nc3C(=O)c3ccccc3)cs2)n1`: 254 to 255 °C; for `CCOc1ccc2[nH]ccc2c1OCc1ccccc1`: 122 to 123 °C; for `CSc1ccc(NC(=O)N(C)O)cc1`: 146 to 148 °C.
The molecule `Cc1ccc([N+](=O)[O-])cc1N(C)c1nnn[nH]1` returned a melting point of 201 to 205 °C.
The same measure for `Cc1nnc(F)c(-c2c(F)cc(F)cc2F)c1-c1ccc2ccccc2c1`: 108 to 110 °C; for `Cc1cc(Oc2ccc3nc(COc4ccc(CC5SC(=O)NC5=O)cc4)n(C)c3c2)cc(C)c1N` (configuration not stated): 209 to 211 °C.
The figure for `O=c1[nH]c2sc(Cl)c(Cl)c2[nH]c1=O` is above 300 °C.
The same measure for `CCCSc1nc[nH]n1`: 53 to 56 °C; for `Clc1ccc2[nH]c3c(c2c1)CN(CCc1ccccn1)CC3`: 198 to 200 °C.
For the molecule `COC(=O)c1c(OC)ccc(OC)c1N=CN(C)C`, the melting point lay within 81 to 83 °C.
The same measure for `CCOC(=O)C(CSC12CC3CC(CC(C3)C1)C2)NC(C)C(=O)O` (configuration not stated): 68 to 72 °C.
The same measure for `CCOCc1cc2ccc(OCc3ccccc3)cc2oc1=O`: 122 to 124 °C.
The figure for `Cc1nc(-n2cnn(Cc3ccc(F)cc3)c2=O)sc1C(=O)NCc1cnn(C)c1` is 205 to 206 °C; for `COC(=O)c1cccc2nc(SCCN3CCN(CC(=O)Nc4c(C(C)C)cccc4C(C)C)CC3)oc12` it is 159 to 161 °C; for `COC(=O)C=C1NCC(c2ccccc2)OC1=O` (configuration not stated) it is 125 to 126 °C.
In turn, `O=C(NC[C@@H](O)C(=O)O)OCC1c2ccccc2-c2ccccc21` came in with a melting point of 165 to 166 °C.
The molecule `Fc1cccc(Nc2nc(OCC3CCCCC3)c3[nH]cnc3n2)c1` gave a melting point of 224 to 227 °C.
The figure for `O=C1COc2ccc(CCCCCCc3ccc4c(c3)NC(=O)CO4)cc2N1` is 219 to 225 °C.
The figure for `COc1ccc2c(N3CCc4c(Br)ccc(C)c43)ncnc2c1` is 134 to 135 °C; for `Cc1cc(I)ccc1O` it is 64 to 65 °C; for `CCN(CC)CCOc1ccc(Nc2ncc3c(n2)N(C)C(=O)N(c2ccccc2Cl)C3)cc1` it is 150 to 151 °C.
The same measure for `CNC(=O)N(Cc1ccc(C)c(C)c1)NC(=O)OC(C)(C)C`: 99.7 to 105 °C; for `[O-][N+]1=C(c2ccccc2)c2cc(C(F)(F)F)ccc2-n2c(CBr)nnc2C1`: 185 to 210 °C; for `CON(C)C(=O)CNC(=O)OC(C)(C)C`: 92 to 95 °C.
Molecule `Cc1oc(-c2ccc(O)cc2)nc1CCOc1ccc(N)cc1` registered a melting point of 184 to 185 °C.
`Brc1ccc2c(c1)N=C(N1CCOCC1)c1cccc3c1N2CC3` displayed a melting point of 216 to 218 °C.
For the molecule `Nc1cccc(-n2nnnc2S)c1`, the melting point is 205 °C.
The figure for `CCn1cc(C(=O)O)c(=O)c2cc(F)c(N3CCC(N)C3)c(F)c21` (configuration not stated) is 240 to 242 °C; for `COc1ccc(C(=O)Nc2ccc(C(C)(C)C#N)cc2)cc1` it is 169 to 171 °C; for `CC(C)(Cn1c(CO)nc2c(N)nc3cccnc3c21)NC(=O)C1CCCCC1` it is 230 to 232 °C.
The same measure for `CSCCSc1c(O)cc(C)oc1=O`: 81 to 83 °C; for `Fc1cc2c(cc1F)CC(n1cc[nH]c1=S)CC2` (configuration not stated): 206 to 207 °C.
The same measure for `CCCN1CC=C(c2c(C)[nH]c3cc(OC)ccc23)CC1`: 90 to 95 °C.
With `CC(C)CCC(C)NC1=NS(=O)(=O)c2cc(Cl)ccc2N1` (configuration not stated), the melting point is above 220 °C.
As for `CCOP(=O)(/C=C/c1cn(-c2ccccc2)nc1NC)OCC`, the melting point fell in the range of 132 to 133 °C.
The molecule `NCC1Cc2cccc(-c3cc(Cl)cc(Cl)c3)c2O1` (configuration not stated) came in with a melting point of 165 to 168 °C.
The same measure for `Cc1cc(C)c2c(c1O)C(N1CCCC1)C1CCCCC21` (configuration not stated): 96 to 97 °C; for `Cn1c(-c2cccnc2)c(CCCCCC(=O)O)c2ccccc21`: 117 to 120 °C.
The figure for `Cc1ccc(S(=O)(=O)N(Cc2ccc(C#N)cc2F)C2CCC2)cc1` is 146 to 147 °C; for `COc1ccc2c(c1)c(=O)c(CSC)cn2C` it is 122 to 123 °C.
The same measure for `CNC(=O)NCCn1c(-c2ccc(CN3CCOCC3)cc2)csc1=Nc1ccc(F)c(C)c1`: 142 to 145 °C.
`CCC(CC)Oc1cc(C)nc2c1NC(=O)CN2c1c(C)cc(C)cc1C` yielded a melting point of 179 to 181 °C.
The same measure for `Cn1cc(-c2ccc(Cl)c(Cl)c2)c(=O)c(-c2ccccc2Cl)c1`: 169 to 171 °C; for `Cc1ccc(N2C(=O)N(CC(=O)Nc3c(C(C)C)cccc3C(C)C)C(=O)C23CCC(O)CC3)cc1` (configuration not stated): 142 to 144 °C.
As for `CCCN1N=C(c2ccc(OC)c(OC)c2)[C@@H]2CCCC[C@@H]2C1=O` (relative stereo), the melting point is 95 to 96 °C.
For `CC(C)Oc1ccc(NC(=O)OCc2cc3cc(-c4ccc(F)cc4)ccc3o2)c(C(=O)O)c1`, the melting point was 195 to 196 °C.
The figure for `COc1cc(F)ccc1CCN1c2nc(-c3ccncc3)cc(=O)n2CCC1(C)C` is 217 to 219 °C; for `COCON=C(C(C)=O)C(=O)OC` it is 115 to 120 °C; for `CC1CCc2cc(N3C[C@H](CO)OC3=O)ccc2N1C(=O)OCc1ccccc1` (some centres not stated) it is 99 to 102 °C.
The figure for `CCc1cc(CCNc2ncnc3c(F)ccc(F)c23)ccc1Oc1cc(C(F)(F)F)ccn1` is 121 to 122 °C.
The same measure for `Cc1ccc(C(=O)NC(NC(=S)Nc2cc(F)ccc2F)C(F)(F)F)cc1` (configuration not stated): 183 to 185 °C; for `Cc1c(-c2cc(O)c(Cl)cc2F)ncnc1C(F)(F)F`: 141 to 142 °C; for `Cc1cc(-n2ccc(CCc3ccccc3)cc2=O)sc1C(=O)NCc1ccccc1`: 145 to 146 °C.
As to `OCc1ccc(-c2ccc(-c3ccsc3)s2)s1`, the melting point fell in the range of 158 to 160 °C.
Take `Nc1nnc(-c2ccc3occ(-c4ccc(OC(F)(F)F)cc4)c3c2)o1`: the melting point was 223 to 224 °C.
`Cn1c(C(F)(F)F)cc(=O)n(-c2ccc(Cl)c(C=CC(=O)OCC(F)(F)F)c2)c1=O` registered a melting point of 170 to 172 °C.
The same measure for `COc1ccc(CCN(C)CCCCc2ccc(NC(=O)c3cccc4c(=O)c5cccc(OC)c5[nH]c34)cc2)cc1`: 182 °C.
The figure for `C#CC(C)Nc1c(C)cccc1C` (configuration not stated) is 32 to 33 °C; for `CCCCc1ccc(C2(O)CN3CCC2CC3)o1` (configuration not stated) it is 94 to 96 °C.
The same measure for `CC(O)c1occc(=O)c1O` (configuration not stated): 131 to 132 °C; for `Cc1ccc2c(=O)c3c(oc2c1)CCC(C#N)C3` (configuration not stated): 176 to 178 °C; for `O=C(OCc1ccccc1)N1CCOc2c(Br)cc(Cl)cc21`: 95 to 97.7 °C.
Molecule `CCOc1cc(C)ccc1S(N)(=O)=O` had a melting point of 136 to 137 °C.
The same measure for `CC1(C)OC(c2ccc(S(C)(=O)=O)cc2Cl)=C(c2ccccc2)C1=O`: 89 to 90 °C; for `COc1ccccc1C(=O)NS(=O)(=O)c1ccc(NC(=O)C2CCCC2)cc1`: 202 to 206 °C; for `CCCCCCCCCCCCCCCCCCNC(=O)OC[C@H]1CC[C@@H](CO)O1` (relative stereo): 79 to 80 °C.
The figure for `CC1(O)CSC(=S)N1c1ccc(Cl)cn1` (configuration not stated) is 95 °C; for `CCc1ccc2c(c1)C(=O)c1ccc(C(=O)O)cc1S2(=O)=O` it is 300 to 303 °C.
The figure for `N#Cc1c(N2CCN(C(=O)c3cccs3)CC2)c2ccsc2n(Cc2ccccc2)c1=O` is 257 °C.
The molecule `O=C(O)COCCN1CCN(C(c2ccccc2)c2ccccc2)CC1` returned a melting point of 100 °C.
The figure for `O=C(CBr)OCC1OC(Sc2ccccc2)C(OCc2ccccc2)C(OCc2ccccc2)C1OCc1ccccc1` (configuration not stated) is 85 to 87 °C; for `COc1cccc(CNc2ncnc3c2sc2nc(N4CCSCC4)c4c(c23)CC(C)(C)CC4)c1OC` it is 112 to 114 °C; for `CCc1ccc(S(=O)(=O)n2c(CCC(=O)O)cc3cc(Cl)ccc32)cc1` it is 130 to 133 °C.
The figure for `C=C(C=O)c1ccc(Cl)cc1[N+](=O)[O-]` is 87 to 88 °C; for `Cc1nc(-n2ccc(O)cc2=O)sc1C(=O)NCc1ccc(F)cc1` it is 280 to 282 °C; for `Cc1nc2c(OCc3ccccc3)cc(Br)cc2n1C` it is 177 to 179 °C.
The figure for `C/C=C/CNC(=O)N1CC(Oc2ccc(C(F)(F)F)cc2)C1` is 157 to 158 °C.
`NC1=NS(=O)(=O)Nc2cccc(OCC3(NC(=O)c4ccncc4)CCCC3)c21` displayed a melting point above 250 °C.
`CC(=O)OCCOCn1cnc2c(=O)[nH]c(N)nc21` returned a melting point of 240 to 241 °C.
The same measure for `O=C(NCc1ccc(F)cc1)c1nc2n(c(=O)c1OCc1ccccc1)CCN2Cc1ccccc1`: 125 °C; for `O=C(c1ccc(O)cc1)c1sc2ccc(O)cc2c1-c1ccccc1`: 152 to 153 °C.
The same measure for `COC12CC(c3nnc(-c4cncc(Br)c4)o3)CN(C)C1Cc1c[nH]c3cccc2c13` (configuration not stated): 155 to 157 °C; for `Cn1c(C(F)(F)F)cc(=O)n(-c2cc(OCCOCCCl)c(Cl)cc2F)c1=O`: 191 to 193 °C.

Source of the values: a melting point compilation (Tetko et al.; mined from patent text by program, amines drawn as free bases though some values may be those of a salt).
